{"source": "paper PMC12086749", "about": "“Design, synthesis, and evaluation of peptide‐imidazo[1,2‐a]pyrazine bioconjugates as potential bivalent inhibitors of the VirB11 ATPase HP0525” (Journal of Peptide Science, 2021)", "target": "VirB11 ATPase HP0525 (Helicobacter pylori, UniProt Q7BK04)", "sequence (Q7BK04 entry or part of it)": "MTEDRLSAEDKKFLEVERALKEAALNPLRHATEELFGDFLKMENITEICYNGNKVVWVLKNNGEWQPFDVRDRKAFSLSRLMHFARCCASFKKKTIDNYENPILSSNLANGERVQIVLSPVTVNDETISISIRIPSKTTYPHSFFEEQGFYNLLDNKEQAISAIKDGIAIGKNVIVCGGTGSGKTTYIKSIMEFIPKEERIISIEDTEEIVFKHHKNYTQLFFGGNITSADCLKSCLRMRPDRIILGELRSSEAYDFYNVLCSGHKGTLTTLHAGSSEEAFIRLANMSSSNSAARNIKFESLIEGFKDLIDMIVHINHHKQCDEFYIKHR", "experiment": "in vitro ATPase colorimetric assay of HP0525", "type": "biochemical", "conditions": "for inhibition of HP0525 (in words): qualitative statement", "experimental": "The HP0525 protein was produced in the E. coli strain BL21 Star (DE3) (Invitrogen) as described previously.[39] The protein concentration was estimated spectroscopically using a NanoDrop (Thermo Scientific) and a calculated extinction coefficient at 280 nm, based on the amino acid composition. The ATPase activity of HP0525 was measured, with and without a specific amount of compound present, using an in vitro ATPase colorimetric assay kit (Innova Biosciences). The assay was performed in 96‐well ELISA microplates (Greiner Bio‐One), using a multipipette/robot.\nA volume of 49 μl of a substrate/buffer solution (200 mM tris(hydroxymethyl)aminomethane [TRIS], pH 7.5; 5 mM MgCl2; 250 μM ATP; and 10% DMSO) was added to each assigned well, followed by the addition of 1 μl of compound (at 0.5; 5 or 50 mM to achieve the final concentrations of 5; 50 and 500 μM in the reaction, respectively) in DMSO (or 1 μl DMSO to controls). The solutions were mixed carefully by pipetting. The reaction was started by the addition of 50 μl of 0.106 μM HP0525 to each well (except the negative control, see text below), and the reaction plate was directly transferred to 37°C for 30 min of incubation. The reaction was stopped by the addition of the gold mix according to the standard protocol of the kit. The absorbance at 620 nm was measured after 30 min at RT. For each compound, the percentage of absorbance relative to non‐inhibited HP0525 was calculated, after subtracting the absorbance value of the negative control. In the negative control, the protein was added after the gold mix, as described in the standard protocol of the kit, which when used as a blank corrects for all free Pi not produced by the enzyme during the 30 min incubation at 37°C. A known inhibitor of HP0525 (CHIR02)[26] was used as a control inhibitor. All measurements were made in duplicate.\nEach compound was screened on three separate plates, and each plate was read twice, and a mean was calculated for each concentration. The data were normalized by subtracting the negative control (0% active) and relating it to the positive control (100% active). The software GraphPad Prism 5 was used to generate two dose–response curves (Log [inhibitor] vs. normalized response [standard and variable slope]), and the IC50 values were calculated from each.", "note": "pIC50: −log10 of the molar value."}
{"smiles": "O=C(CCN1C(=O)C=CC1=O)NCCOCCOC(=O)Nc1ccc(S(=O)(=O)Nc2nccn3cc(-c4ccc5ccccc5c4)nc23)cc1", "note": "[Compound 17]", "values": [{"measurement": "pIC50", "value": 4.74}, {"measurement": "inhibition of HP0525 (in words)", "value": "improved inhibition"}]}
{"smiles": "C=CCOCCOC(=O)Nc1ccc(S(=O)(=O)Nc2nccn3cc(-c4ccc5ccccc5c4)nc23)cc1", "note": "[Compound 15]", "values": [{"measurement": "pIC50", "value": 4.34}, {"measurement": "inhibition of HP0525 (in words)", "value": "improved inhibition"}]}
{"smiles": "C#CCOCCOC(=O)Nc1ccc(S(=O)(=O)Nc2nccn3cc(-c4ccc5ccccc5c4)nc23)cc1", "note": "[Compound 16]", "values": [{"measurement": "pIC50", "value": 4.21}, {"measurement": "inhibition of HP0525 (in words)", "value": "improved inhibition"}]}
{"smiles": "NCCOCCOC(=O)Nc1ccc(S(=O)(=O)Nc2nccn3cc(-c4ccc5ccccc5c4)nc23)cc1", "note": "[Compound 27]", "values": [{"measurement": "pIC50", "value": 3.86}, {"measurement": "inhibition of HP0525 (in words)", "value": "poor inhibition"}]}
